Measurements reported in the supplement of paper PMC10307832.

Assays:
Assay in all cases: relative viability (nuclei count vs DMSO), 5 days (fraction); higher = more cells survive
XMD8-85 + Alpelisib = compound: CN1CCN(CC1)C2=CC(=C(C=C2)NC3=NC=C4C(=N3)N(C5=CC=CC=C5C(=O)N4C)C)OC [XMD8-85] + Cc1nc(NC(=O)N2CCC[C@H]2C(N)=O)sc1-c1ccnc(C(C)(C)C(F)(F)F)c1 [Alpelisib] (partner 2 µM)
How it was run: (§1)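 Lung cancer cell lines were pin-tool dosed in 1536-well plates on the day after seeding, with either a lone drug or a fixed anchor-drug dose plus five library-drug doses (not always all listed) in √10 steps. Nuclei were counted on 4× images after 5 days. Relative viability is the ratio of treated-well to vehicle-well nuclei counts, with each value a median of duplicate plates.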

4EGI-1 + Linsitinib = compound: O=C(O)C(Cc1ccccc1[N+](=O)[O-])=NNc1nc(-c2ccc(Cl)c(Cl)c2)cs1 (mixture of isomers) [4EGI-1] + C[C@]1(O)C[C@@H](c2nc(-c3ccc4ccc(-c5ccccc5)nc4c3)c3c(N)nccn32)C1 [Linsitinib] (partner 1 µM)
How it was run: as §1

4EGI-1 + Bortezomib = compound: O=C(O)C(Cc1ccccc1[N+](=O)[O-])=NNc1nc(-c2ccc(Cl)c(Cl)c2)cs1 (mixture of isomers) [4EGI-1] + CC(C)C[C@H](NC(=O)[C@H](Cc1ccccc1)NC(=O)c1cnccn1)B(O)O [Bortezomib] (partner 0.002 µM)
How it was run: as §1

XMD8-85 + Olaparib = compound: CN1CCN(CC1)C2=CC(=C(C=C2)NC3=NC=C4C(=N3)N(C5=CC=CC=C5C(=O)N4C)C)OC [XMD8-85] + O=C(c1cc(Cc2n[nH]c(=O)c3ccccc23)ccc1F)N1CCN(C(=O)C2CC2)CC1 [Olaparib] (partner 8 µM)
How it was run: as §1

Row | Cell Line | relative viability (XMD8-85 + Alpelisib; first compound 0.08 µM) | relative viability (XMD8-85 + Alpelisib; first compound 0.8 µM) | relative viability (XMD8-85 + Alpelisib; first compound 2.53 µM) | relative viability (XMD8-85 + Alpelisib; first compound 8 µM) | relative viability (4EGI-1 + Linsitinib; first compound 0.5 µM) | relative viability (4EGI-1 + Linsitinib; first compound 1.581 µM) | relative viability (4EGI-1 + Linsitinib; first compound 5 µM) | relative viability (4EGI-1 + Linsitinib; first compound 15.81 µM) | relative viability (4EGI-1 + Linsitinib; first compound 50 µM) | relative viability (4EGI-1 + Bortezomib; first compound 0.5 µM) | relative viability (4EGI-1 + Bortezomib; first compound 1.581 µM) | relative viability (4EGI-1 + Bortezomib; first compound 5 µM) | relative viability (4EGI-1 + Bortezomib; first compound 15.81 µM) | relative viability (4EGI-1 + Bortezomib; first compound 50 µM) | relative viability (XMD8-85 + Olaparib; first compound 0.08 µM) | relative viability (XMD8-85 + Olaparib; first compound 0.253 µM) | relative viability (XMD8-85 + Olaparib; first compound 0.8 µM) | relative viability (XMD8-85 + Olaparib; first compound 2.53 µM) | relative viability (XMD8-85 + Olaparib; first compound 8 µM) | relative viability (XMD8-85 + Alpelisib; first compound 0.253 µM)
1 | IA-LM | 0.613 | 0.66 | 0.77 | 0.225 | 0.536 | 0.492 | 0.649 | 0.251 | 0.163 | 0.873 | 0.707 | 0.552 | 0.144 | 0.0723 | 0.862 | 0.885 | 0.836 | 1.07 | 0.207 | –
2 | HCC-366 | 0.532 | 0.42 | 0.373 | 0.273 | 0.791 | 0.697 | 0.741 | 0.772 | 0.382 | 1.12 | 0.841 | 1.04 | 1.09 | 0.19 | 0.231 | 0.358 | 0.385 | – | 0.242 | 0.573
3 | NCI-H520 | 0.891 | 0.866 | 0.854 | 0.515 | 1.19 | 0.984 | 1.01 | 0.75 | 0.558 | 0.838 | 0.521 | 0.999 | 0.536 | 0.108 | 0.343 | 0.366 | 0.293 | 0.305 | 0.236 | 0.918
4 | HCC-44 | 0.835 | 0.852 | 0.64 | 0.307 | 0.708 | 0.361 | 0.681 | 0.585 | 0.406 | 0.924 | 0.637 | 0.877 | 0.753 | 0.235 | 0.991 | 0.955 | 0.946 | 0.996 | 0.849 | 0.79
5 | BEN | 0.871 | 0.966 | 0.662 | 0.553 | 1.02 | 1.03 | 1.02 | 0.808 | 0.729 | 0.848 | 1.22 | 0.903 | 0.754 | 0.604 | 0.952 | 1.05 | 0.947 | 0.887 | 0.613 | 1.06
6 | HARA | 0.932 | 0.911 | 0.445 | 0.27 | 0.982 | 0.955 | 1.05 | 0.973 | 0.209 | 1.16 | 1.12 | 1.26 | 1.08 | 0.154 | 1.28 | 0.581 | 0.698 | 0.387 | 0.399 | 0.675
7 | NCI-H2085 | 0.966 | 1.01 | 0.852 | 0.728 | 1.03 | 0.911 | 0.887 | 0.771 | 0.639 | 1.14 | 1.04 | 1.16 | 0.964 | 0.517 | 0.729 | 0.743 | 0.77 | 0.725 | 0.699 | 0.917
8 | NCI-H838 | 0.983 | 1.09 | 1.01 | 0.446 | 1.19 | – | 1.02 | 0.854 | 0.434 | 0.865 | – | 0.82 | 0.612 | 0.167 | 0.796 | 0.749 | 0.898 | 0.778 | 0.279 | 1.03
